The source of these data is patent US5278176A (Abbott Laboratories, priority 1992, dated 1994).

Counter-ions that a name gives are not always drawn.

Series [1] has as its target Neuronal Nicotinic Receptors. The series can be described thus: Binding of [^3 H]-methylcarbamylcholine ([^3 H]-MCC) to neuronal nicotinic receptors (Table 1). Set-up: species or system rat. As for the experimental part:
Protocols for Determination of Nicotinic Receptor Binding Potencies of Agonists
Binding of [^3 H]-methylcarbamylcholine ([^3 H]-MCC) to nicotinic receptor was accomplished using crude synaptic membrane preparations from whole rat brain (Snyder and Enna, Brain Research, 1975, 100:81). Washed membranes were stored at -80° C. prior to use. Frozen aliquots were slowly thawed and resuspended in 20 volumes of buffer (containing: 120 mM NaCl, 5 mM KCl, 2 mM MgCl2, 2 mM CaCl2 and 50 mM Tris-Cl, pH 7.4 @4° C.). After centrifuging at 20,000 g for 15 minutes, the pellets were resuspended in 30 volumes of buffer. Homogenate (containing 125-150 μg protein) was added to triplicate tubes containing concentrations of test compound and [^3 H]-MCC (3 nM) in a final volume of 500 μL. Samples were incubated for 60 minutes at 4° C., then rapidly filtered through Whatman GF/B filters presoaked in 0.5% polyethylimine using 3×4 mL of ice-cold buffer. The filters are counted in 4 mL of Ecolume® (ICN). […] Alternately, data were expressed as a percentage of the total specific binding.

Series [2] has as its system retention of the avoidance response. Put plainly: Inhibitory Avoidance Studies. Format: in vivo, CD1 mice. The note with it: 0.06-6.2 μmol/kg IP, 15 min before training; FIG. 2. As for the experimental part:
FIG. 2 is a graphical representation (bar graph) of the effects of the compound of Example 8 (0.001-1.0 mg/kg) on the performance of CD1 mice in Inhibitory Avoidance Studies expressed as median step-through latency time (seconds).
The inhibitory (or sometimes called passive) avoidance (IA) test is a well accepted animal model of learning/memory used to assess the activity of novel muscarinic agonists to enhance cognitive function (Wanibuchi et al., Eur. J. Pharmacol., 1990, 187:479). Animals are placed in the illuminated (12×14×11 cm) portion of a two-chambered box, from which they enter through a guillotine door to the larger (24×13.5×12 cm) dark compartment of the box. Entry to the dark compartment is accompanied by a mild (0.5 mA), brief (2 seconds) footshock. Initial latencies to cross are recorded, with an imposed 60 second ceiling. Following a 72 hour retention interval, animals are returned to the illuminated chamber, and latency to return to the dark compartment is again recorded, with a ceiling of 180 seconds. No footshock is administered on the test day.
Twelve animals were used in each group.

The conditions of series [3]: background statement; cited from earlier work.
A further series deals with withdrawal symptoms. The note with it: double-blind studies; cited from earlier work.
The test system of the next series is heart. As to conditions: in vivo; cited from earlier work.
Another series has as its system cognitive function. The note with it: acutely and chronically administered; preserved in aged animals; cited from earlier work.
A further series deals with receptors. The note with it: chronic nicotine administration; cited from earlier work.
The test system of series [4] is anxiolytic activity (time in open arms). The series can be described thus: Mouse Elevated Plus-Maze Studies. The format is in vivo, CD1 mice. On the procedure: FIG. 4 is a graphical representation of the effects of the compound of Example 4 (0.003-0.3 mg/kg) on the performance of CD1 mice in the Elevated-Plus Maze Study expressed as median time (seconds) spent on the open arms of the maze.
The mouse elevated plus-maze is a conflict test that probes anxiolytic activity of test compounds (Lister, Psychopharmacology, 1987, 92:180). It is based on the fact that exposure of mice to an elevated open arm leads to an avoidance response considerably stronger than that evoked by exposure to an enclosed arm.
The apparatus required to perform this test is made of plywood and consists of two open arms (17×8 cm) and two enclosed arms (17×8×15 cm) extending from a central platform (8×8 cm). It is mounted on a plywood base rising 39 cm above the floor. Mice are released on the central platform and the time spent in the open and enclosed arms is recorded during a 5 minute test period.
The compound of Example 4 (0.62-6.2 μmol/kg, IP) was administered to CD1 mice 15 minutes before the test.

Series [5] has as its system anger, irritability, frustration, tension, anxiety. The note with it: cited from earlier work.
The subject of a further series is insecticidal activity. As to conditions: U.S. Pat. No. 4,093,620; cited from earlier work.
Series [6] deals with cholinergic receptors located in the heart. The note with it: cited from earlier work.
The next series concerns cortical receptors. As to conditions: cited from earlier work.
The test system of another series is parietotemporal cortex. As to conditions: parietotemporal cortex of humans; cited from earlier work.
The mark [7] stands for this setting: [^3 H]-MCC (3 nM), whole rat brain membranes, 60 min at 4° C., Cheng-Prusoff from IC50.

As for `CC[C@H]1CC(c2cccnc2)N(C)C1` (stereo partly drawn) [Example 6, 4'-(S)-Ethylnicotine dioxalate], the affinity in series [1] (setting [7]) corresponds to a Ki of 53 nM. On the same count and under the same terms, with `CO[C@@H]1CC(c2cccnc2)N(C)C1` (stereo partly drawn) [Example 2, 4'-(R)-Methoxynicotine oxalate] the figure was 25 nM. Take `CN1C[C@H](CF)CC1c1cccnc1.O=C(O)C(=O)O` (stereo partly drawn) [Example 8, 4'-(R)-Fluoromethylnicotine oxalate]: the Ki in series [1] (setting [7]) was 10 nM. Further, the “facilitation of retention of the avoidance response” value in [2] is on record as “significantly facilitated the retention of the avoidance response”.

The molecule `CC(=O)O[C@@H]1CC(c2cccnc2)N(C)C1` (stereo partly drawn) [Example 12, 4'-(R)-Acetyloxynicotine oxalate] registered an inhibitory constant (Ki) in series [1] (setting [7]) of 162 nM. For the molecule `CN1C[C@@H](F)CC1c1cccnc1` (stereo partly drawn) [Example 3, 4'-(S)-Fluoronicotine dioxalate], the affinity in series [1] (setting [7]), expressed as Ki, was 35 nM. As to `COC(=O)C1=CCCN(C)C1` [arecoline], the Ki in series [1] (arecoline comparator in text, unit inferred) amounted to 59 nM. Besides, in [3], the pharmacokinetics entry was “unfavorable pharmacokinetics”. Regarding `CN1C[C@H](O)CC1c1cccnc1` (stereo partly drawn) [Example 1, 4'-(R)-Hydroxynicotine oxalate], the affinity in series [1] (setting [7]), expressed as Ki, was 29 nM.

Turning to `C[N+](C)(C)CCOC(N)=O` [carbachol], the CNS penetration result in series [3] is on record as “poor CNS penetration”.

Take `CN1CCC[C@H]1c1cccnc1` [nicotine]: the “suppression/prevention of withdrawal signs and symptoms vs placebo” value in the series with withdrawal symptoms is “far superior to placebo in suppressing or preventing the appearance of many of the signs and symptoms of withdrawal”. This molecule came in with a Ki in [1] (setting [7]) of 1 nM. In addition, in series [3], the oral bioavailability result is given as “poor oral bioavailability” and the pharmacokinetics entry is recorded as “unfavorable pharmacokinetics”. The “stimulant effects on the heart” value in the series with heart was “increasing cardiac workload and oxygen demand”. Also, in the series with cognitive function, the cognitive function result is on record as “enhances cognitive function in rats”. Moreover, in the series with receptors, the “effect on receptor affinity” value is reported as “without affecting affinity” and the “up-regulation of number of receptors” value is 50-100%. Also, in series [4] ((-)nicotine 0.1 and 0.3 mmol/kg, p<0.05 vs saline, 5 min test), the “time spent in open arms of the maze” value is on record as “significant increase in the time spent by the mice in the open arms of the maze”. Moreover, in [5] (Pomerleau et al. 1984), the anxiolytic properties result is given as “anxiolytic properties”. Also, the “effect on anger, irritability, frustration, tension” value in series [5] (U.S. Pat. No. 3,879,794, without general response depression, drowsiness or sedation) is “effective in reducing anger, irritability, frustration and feelings of tension”.

In turn, `CC1CCN(C)C1c1cccnc1` (stereo not drawn) [Example 10, 3'-methylnicotine dioxalate] returned a Ki in series [1] (setting [7]) of 23 nM. For `CN1C(C#N)CCC1c1cccnc1` (stereo not drawn) [5'-cyanonicotine], the insecticidal activity entry in the series on insecticidal activity is given as “insecticidal activity”. In series [1] (setting [7]), `CN1C[C@@H](Cc2ccccc2)CC1c1cccnc1` (stereo partly drawn) [Example 5, 4'-(S)-Benzylnicotine dioxalate] gave a Ki of 135 nM. As for `C[C@@H]1CC(c2cccnc2)N(C)C1.O=C(O)C(=O)O.O=C(O)C(=O)O` (stereo partly drawn) [Example 4, 4'-(R)-Methylnicotine dioxalate], the affinity in series [1] (setting [7]), expressed as Ki, was 4.2 nM. Also, the “anxiolytic response (time in open arms)” value in series [4] (0.62-6.2 μmol/kg IP, 15 min before test, p<0.05 vs control, FIG. 4) is “clear anxiolytic response”. For the same molecule, in [4] (FIG. 4), the “anxiolytic effect compared with (-)nicotine” value is recorded as “anxiolytic effect similar to (-)nicotine”.

In turn, `CN1C[C@@H](C#N)CC1c1cccnc1` (stereo partly drawn) [Example 11, 4'-(S)-Cyanonicotine dioxalate] came in with a Ki in series [1] (setting [7]) of 7 nM. In the case of `CCN1C(=O)CC2(CCN(C)CC2)C1=O` [RS-86], the potency and selectivity entry in series [3] was “poor potency and lack of selectivity”. Also, the “agonist efficacy at cardiac receptors” value in series [6] is listed as “full agonist at cardiac receptors”. Further, the “agonist efficacy at cortical receptors” value with cortical receptors was “only a partial agonist at cortical receptors”.

As to `CNC1(C)C2CCC(C2)C1(C)C` (stereo not drawn) [mecamylamine], the resting cortical perfusion entry in the series with parietotemporal cortex is on record as “reduces resting cortical perfusion”. In the case of `CN1CCC(CF)C1c1cccnc1` (stereo not drawn) [Example 9, 3'-Fluoromethylnicotine oxalate], the Ki in [1] (setting [7]) stood at 106 nM. The same measure, in the same setting: with `CN1C[C@H](OS(C)(=O)=O)CC1c1cccnc1` (stereo partly drawn) [Example 19, 4'-(R)-Methanesulfonyoxynicotine oxalate] the figure was 276 nM. On the same count and under the same terms, with `CC1CN(C)C(c2cccnc2)C1C` (stereo not drawn) [Example 13, 3',4'-Dimethylnicotine oxalate] the figure was 105 nM; with `CN1C[C@@H](CC#N)CC1c1cccnc1` (stereo partly drawn) [Example 16, 4'-(R)-Cyanomethylnicotine oxalate], 53 nM.

As a reminder, the Ki is a dissociation constant, usually derived from enzyme kinetics or from competition with a known ligand. Low readings indicate higher affinity, high ones lower affinity.
